Assay results as given in patent publication US20260285802A1, “MODULATORS OF SORTILIN ACTIVITY” (priority 2023, published 2026).
pKd: −log10 of the molar value.

Target: T1, Human (6-His) Sortilin (Homo sapiens, UniProt Q99523)
T1 sequence (Q99523 78-831): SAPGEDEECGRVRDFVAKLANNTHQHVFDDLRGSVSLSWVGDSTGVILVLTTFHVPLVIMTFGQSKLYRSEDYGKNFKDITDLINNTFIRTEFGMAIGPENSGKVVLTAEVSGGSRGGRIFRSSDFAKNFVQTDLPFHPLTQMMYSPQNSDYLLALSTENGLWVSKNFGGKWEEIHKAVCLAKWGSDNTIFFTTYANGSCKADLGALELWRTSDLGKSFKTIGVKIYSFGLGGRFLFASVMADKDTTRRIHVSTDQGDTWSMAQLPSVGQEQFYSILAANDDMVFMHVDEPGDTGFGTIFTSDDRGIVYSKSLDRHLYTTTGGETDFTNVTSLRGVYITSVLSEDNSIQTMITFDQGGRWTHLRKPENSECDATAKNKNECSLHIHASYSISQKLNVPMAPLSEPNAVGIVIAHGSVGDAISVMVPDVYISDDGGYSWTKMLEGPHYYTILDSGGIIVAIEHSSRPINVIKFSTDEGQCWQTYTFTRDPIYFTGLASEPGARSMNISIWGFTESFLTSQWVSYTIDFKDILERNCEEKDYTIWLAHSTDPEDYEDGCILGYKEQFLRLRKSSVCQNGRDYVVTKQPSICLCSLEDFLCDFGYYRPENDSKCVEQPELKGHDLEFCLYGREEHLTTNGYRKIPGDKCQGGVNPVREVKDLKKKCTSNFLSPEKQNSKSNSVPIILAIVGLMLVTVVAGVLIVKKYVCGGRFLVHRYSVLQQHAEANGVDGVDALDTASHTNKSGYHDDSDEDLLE
Assay: biochemical

Question: With `CC(C)(C)CCC(Nc1ccccc1)c1nnn[nH]1` (racemic) [Example 39, N-phenyl[4,4-dimethyl-1-(2H-tetraazol-5-yl)pentyl]amine] as the compound, how does the pKd read?
Answer: The pKd was 5.55.

Question: How did the pKd turn out when `CC(C)CC(Nc1cccnc1)c1nnn[nH]1` (racemic) [Example 63, [3-methyl-1-(2H-tetraazol-5-yl)butyl]-3-pyridylamine] was run?
Answer: Its pKd is 4.33.

Question: With `CC(C)CC(Nc1ccccc1)c1nnn[nH]1` (racemic) [Example 67, [3-methyl-1-(2H-tetraazol-5-yl)butyl]aniline] as the compound, how does the pKd read?
Answer: Its pKd is 3.95.

Question: How did the pKd turn out when `COc1ccc2c(NC(CCC(C)(C)C)c3nnn[nH]3)ncnc2c1` (racemic) [Example 85, [4,4-dimethyl-1-(2H-tetraazol-5-yl)pentyl](7-methoxy-4-quinazolinyl)amine] was run?
Answer: Its pKd is 7.04.

Question: `CC(C)(C)CCC(Nc1ncnc2cc(C(F)(F)F)ccc12)c1nnn[nH]1` (racemic) [Example 87, [4,4-dimethyl-1-(2H-tetraazol-5-yl)pentyl][7-(trifluoromethyl)-4-quinazolinyl]amine] was tested. Which pKd did it give?
Answer: Its pKd is 6.45.

Question: With `Cc1nc(NC(CCC(C)(C)C)c2nnn[nH]2)c2ccccc2n1` (racemic) [Example 89, [4,4-dimethyl-1-(2H-tetraazol-5-yl)pentyl](2-methyl-4-quinazolinyl)amine] as the compound, how does the pKd read?
Answer: Its pKd is 7.07.

Question: `Cc1nc(N[C@@H](CCC(C)(C)C)C(=O)O)c2ccccc2n1` [Example 118, (S)-5,5-Dimethyl-2-((2-methylquinazolin-4-yl)amino)hexanoic acid] was tested. Which pKd did it give?
Answer: The pKd was 7.74.

Question: How did the pKd turn out when `CC(C)(C)CC[C@H](Nc1nc(C2CC2)nc2ccccc12)C(=O)O` [Example 119, (S)-2-((2-Cyclopropylquinazolin-4-yl)amino)-5,5-dimethylhexanoic acid] was run?
Answer: Its pKd is 7.85.
